Data reported in ChEMBL document CHEMBL1909046, “DrugMatrix in vitro pharmacology data”.

What was measured:
[1] = molecular target: Mitogen-activated protein kinase 3 (Homo sapiens, UniProt P27361); test: DRUGMATRIX: Protein Serine/Threonine Kinase, ERK1 enzyme inhibition (substrate: Myelin Basic Protein); design: species or system Escherichia coli; conditions: Not Active = under 50% inhibition at 10 µM
[2] = molecular target: Matrix metalloproteinase-9 (Homo sapiens, UniProt P14780); assay type: cell-based;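 also: inhibition of isolated MMP-9 enzyme activity toward a synthetic peptide substrate, from the DrugMatrix protease screening panel; in other assays of this panel Not Active means under 50% inhibition at 10 µM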
Sequence of Matrix metalloproteinase-9 (P14780 whole entry): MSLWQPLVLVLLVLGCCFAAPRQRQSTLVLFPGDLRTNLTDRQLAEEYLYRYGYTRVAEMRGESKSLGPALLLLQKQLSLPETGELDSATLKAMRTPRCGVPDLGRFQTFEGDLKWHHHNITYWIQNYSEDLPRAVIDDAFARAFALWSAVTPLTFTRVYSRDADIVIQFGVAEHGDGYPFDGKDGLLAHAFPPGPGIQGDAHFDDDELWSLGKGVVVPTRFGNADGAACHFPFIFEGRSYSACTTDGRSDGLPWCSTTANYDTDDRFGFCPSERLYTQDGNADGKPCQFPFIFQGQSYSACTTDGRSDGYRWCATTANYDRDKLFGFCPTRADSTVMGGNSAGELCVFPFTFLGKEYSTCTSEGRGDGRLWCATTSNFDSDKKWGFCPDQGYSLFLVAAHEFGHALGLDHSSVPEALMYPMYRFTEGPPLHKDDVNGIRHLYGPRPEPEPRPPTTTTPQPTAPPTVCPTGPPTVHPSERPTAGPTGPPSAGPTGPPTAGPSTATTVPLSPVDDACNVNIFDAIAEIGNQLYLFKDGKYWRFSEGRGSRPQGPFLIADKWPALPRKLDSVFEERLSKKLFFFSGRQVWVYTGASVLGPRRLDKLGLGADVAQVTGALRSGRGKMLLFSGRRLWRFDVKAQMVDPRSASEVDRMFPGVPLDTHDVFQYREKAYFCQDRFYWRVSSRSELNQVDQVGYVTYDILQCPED

[3] = molecular target: T1, Cysteinyl leukotriene receptor 1 (Homo sapiens, UniProt Q9Y271); assay type: cell membranes, CHO-K1, Membrane; conditions: cho-k1; also: in other assays of this panel Not Active means under 50% inhibition at 10 µM
T1 sequence (Q9Y271 whole entry): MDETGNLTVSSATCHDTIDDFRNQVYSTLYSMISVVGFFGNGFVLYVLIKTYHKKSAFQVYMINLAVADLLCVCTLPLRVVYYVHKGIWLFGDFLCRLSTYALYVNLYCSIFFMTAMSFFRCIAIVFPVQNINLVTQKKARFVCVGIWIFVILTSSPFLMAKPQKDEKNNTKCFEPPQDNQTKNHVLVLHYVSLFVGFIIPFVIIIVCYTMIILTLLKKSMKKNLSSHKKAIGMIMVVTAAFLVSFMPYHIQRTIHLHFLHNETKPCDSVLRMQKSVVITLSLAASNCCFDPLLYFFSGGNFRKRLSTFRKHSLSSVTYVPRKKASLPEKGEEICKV

[4] = molecular target: T2, Cholecystokinin receptor type A (Homo sapiens, UniProt P32238); assay type: cell membranes, Membrane; conditions: 1321-n1; also: in other assays of this panel Not Active means under 50% inhibition at 10 µM
T2 sequence (P32238 whole entry): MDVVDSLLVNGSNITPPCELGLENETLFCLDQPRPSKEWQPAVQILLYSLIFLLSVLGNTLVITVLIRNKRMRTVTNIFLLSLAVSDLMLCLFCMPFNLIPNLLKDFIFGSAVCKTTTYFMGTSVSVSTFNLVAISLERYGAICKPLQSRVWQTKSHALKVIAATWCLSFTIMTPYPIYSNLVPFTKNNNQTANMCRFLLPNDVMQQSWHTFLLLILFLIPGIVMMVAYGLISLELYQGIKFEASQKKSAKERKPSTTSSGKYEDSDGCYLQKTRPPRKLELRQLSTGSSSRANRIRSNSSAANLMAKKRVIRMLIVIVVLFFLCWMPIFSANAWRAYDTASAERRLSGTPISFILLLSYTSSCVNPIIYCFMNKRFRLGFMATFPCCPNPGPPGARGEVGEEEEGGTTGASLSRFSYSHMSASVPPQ

[5] = molecular target: Kappa-type opioid receptor (Homo sapiens, UniProt P41145); test: DRUGMATRIX: Opiate kappa (OP2, KOP) radioligand binding (ligand: [3H] Diprenorphine); assay type: cell membranes, HEK293, Membrane; conditions: hek293; Not Active = under 50% inhibition at 10 µM
Sequence of Kappa-type opioid receptor (P41145 whole entry): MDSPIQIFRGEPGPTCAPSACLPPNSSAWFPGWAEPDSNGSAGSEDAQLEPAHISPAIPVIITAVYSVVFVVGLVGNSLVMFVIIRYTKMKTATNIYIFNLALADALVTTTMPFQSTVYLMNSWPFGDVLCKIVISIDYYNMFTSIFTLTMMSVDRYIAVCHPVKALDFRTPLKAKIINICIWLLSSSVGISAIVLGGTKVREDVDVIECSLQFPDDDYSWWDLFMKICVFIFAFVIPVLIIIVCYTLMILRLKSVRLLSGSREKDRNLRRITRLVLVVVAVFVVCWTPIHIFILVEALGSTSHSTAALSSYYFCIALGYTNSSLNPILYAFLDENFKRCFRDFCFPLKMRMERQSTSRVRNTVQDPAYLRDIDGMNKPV

Cytochrome P450 3A4 = Cytochrome P450 3A4 (Homo sapiens, UniProt P08684); conditions: bti-tn-5b1-4; also: in other assays of this panel Not Active means under 50% inhibition at 10 µM
Sequence of Cytochrome P450 3A4 (P08684 whole entry): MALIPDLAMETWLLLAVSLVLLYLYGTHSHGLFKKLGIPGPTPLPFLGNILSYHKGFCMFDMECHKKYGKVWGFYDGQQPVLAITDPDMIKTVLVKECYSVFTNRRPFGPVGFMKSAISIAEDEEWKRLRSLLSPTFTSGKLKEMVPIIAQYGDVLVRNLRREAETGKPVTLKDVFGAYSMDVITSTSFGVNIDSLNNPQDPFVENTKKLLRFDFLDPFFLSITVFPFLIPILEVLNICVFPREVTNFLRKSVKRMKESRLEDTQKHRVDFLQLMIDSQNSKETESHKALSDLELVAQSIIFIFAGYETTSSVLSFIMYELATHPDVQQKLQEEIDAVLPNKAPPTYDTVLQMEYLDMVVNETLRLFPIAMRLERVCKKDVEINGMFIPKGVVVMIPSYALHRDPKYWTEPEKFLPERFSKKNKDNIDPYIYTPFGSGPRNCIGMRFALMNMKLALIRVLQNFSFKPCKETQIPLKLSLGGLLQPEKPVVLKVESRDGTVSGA

[6] = molecular target: T3, 5-hydroxytryptamine receptor 2C (Homo sapiens, UniProt P28335); test: DRUGMATRIX: Serotonin (5-Hydroxytryptamine) 5-HT2C radioligand binding (ligand: [3H] Mesulergine); assay type: cell membranes, CHO-K1, Membrane; conditions: cho-k1; Not Active = under 50% inhibition at 10 µM
T3 sequence (P28335 whole entry): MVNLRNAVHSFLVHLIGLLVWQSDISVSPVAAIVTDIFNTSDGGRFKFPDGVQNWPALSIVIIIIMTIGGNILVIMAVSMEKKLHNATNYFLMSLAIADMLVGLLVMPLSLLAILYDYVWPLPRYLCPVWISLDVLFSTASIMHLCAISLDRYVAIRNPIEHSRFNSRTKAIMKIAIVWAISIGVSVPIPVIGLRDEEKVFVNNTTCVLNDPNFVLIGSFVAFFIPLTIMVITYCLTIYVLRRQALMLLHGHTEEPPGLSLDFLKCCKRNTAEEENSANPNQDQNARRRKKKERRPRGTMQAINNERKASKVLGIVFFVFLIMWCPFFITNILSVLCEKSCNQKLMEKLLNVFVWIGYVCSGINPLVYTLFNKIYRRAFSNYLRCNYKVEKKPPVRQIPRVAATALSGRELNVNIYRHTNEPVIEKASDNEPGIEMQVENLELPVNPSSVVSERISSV

Melanocortin receptor 4 = Melanocortin receptor 4 (Homo sapiens, UniProt P32245); assay type: cell membranes, Membrane; conditions: hek293; also: in other assays of this panel Not Active means under 50% inhibition at 10 µM
Sequence of Melanocortin receptor 4 (P32245 whole entry): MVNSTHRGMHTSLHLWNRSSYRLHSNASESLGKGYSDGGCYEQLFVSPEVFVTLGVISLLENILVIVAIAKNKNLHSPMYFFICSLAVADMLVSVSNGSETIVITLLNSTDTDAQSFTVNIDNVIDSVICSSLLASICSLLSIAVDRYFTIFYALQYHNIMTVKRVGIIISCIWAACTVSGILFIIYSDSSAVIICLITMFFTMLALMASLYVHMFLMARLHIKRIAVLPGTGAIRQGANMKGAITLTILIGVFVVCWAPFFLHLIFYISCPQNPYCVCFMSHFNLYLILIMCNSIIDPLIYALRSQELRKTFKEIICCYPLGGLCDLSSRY

[7] = DRUGMATRIX: Sigma2 radioligand binding (ligand: [3H] Ifenprodil); assay type: cell membranes, Rattus norvegicus, Wistar, Brain, Membrane; conditions: Not Active = under 50% inhibition at 10 µM
[8] = DRUGMATRIX: Interleukin IL-1 radioligand binding (ligand: [125I] interleukin 1beta); assay type: cell membranes, Membrane; conditions: nih3t3; Not Active = under 50% inhibition at 10 µM
Estrogen receptor = molecular target: T4, Estrogen receptor (Homo sapiens, UniProt P03372); conditions: sf9; also: in other assays of this panel Not Active means under 50% inhibition at 10 µM
T4 sequence (P03372 whole entry): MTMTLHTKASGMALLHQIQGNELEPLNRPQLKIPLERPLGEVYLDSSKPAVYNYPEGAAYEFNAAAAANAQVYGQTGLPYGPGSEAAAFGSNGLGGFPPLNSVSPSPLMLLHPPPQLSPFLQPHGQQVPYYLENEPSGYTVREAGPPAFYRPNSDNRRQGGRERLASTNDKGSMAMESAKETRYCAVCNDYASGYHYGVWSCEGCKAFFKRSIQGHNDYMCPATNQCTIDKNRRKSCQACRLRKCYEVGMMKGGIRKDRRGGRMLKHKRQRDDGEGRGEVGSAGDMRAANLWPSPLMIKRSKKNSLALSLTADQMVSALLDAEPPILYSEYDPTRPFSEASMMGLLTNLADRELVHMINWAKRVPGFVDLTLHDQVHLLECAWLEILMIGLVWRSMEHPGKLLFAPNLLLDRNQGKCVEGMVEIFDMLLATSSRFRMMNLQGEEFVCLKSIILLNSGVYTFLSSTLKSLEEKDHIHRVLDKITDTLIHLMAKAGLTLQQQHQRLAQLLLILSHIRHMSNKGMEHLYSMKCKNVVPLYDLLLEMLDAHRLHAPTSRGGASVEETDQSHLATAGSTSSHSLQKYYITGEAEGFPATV

Vasopressin V1a receptor = Vasopressin V1a receptor (Homo sapiens, UniProt P37288); assay type: cell membranes, Membrane; conditions: hek293; also: in other assays of this panel Not Active means under 50% inhibition at 10 µM
Sequence of Vasopressin V1a receptor (P37288 whole entry): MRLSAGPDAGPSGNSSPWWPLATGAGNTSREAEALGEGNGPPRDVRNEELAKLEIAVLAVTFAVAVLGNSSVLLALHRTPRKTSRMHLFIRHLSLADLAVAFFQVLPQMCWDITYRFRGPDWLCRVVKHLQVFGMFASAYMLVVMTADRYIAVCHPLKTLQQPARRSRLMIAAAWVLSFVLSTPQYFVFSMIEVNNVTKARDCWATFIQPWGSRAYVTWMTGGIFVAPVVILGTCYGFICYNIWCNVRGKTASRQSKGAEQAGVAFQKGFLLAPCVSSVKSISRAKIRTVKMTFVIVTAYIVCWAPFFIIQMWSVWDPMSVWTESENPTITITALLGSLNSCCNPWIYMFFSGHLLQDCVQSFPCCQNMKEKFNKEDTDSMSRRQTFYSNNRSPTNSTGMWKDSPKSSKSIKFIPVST

[9] = DRUGMATRIX: Potassium Channel [KATP] radioligand binding (ligand: [3H] Glyburide); assay type: cell membranes, Membrane; conditions: hit-t15; Not Active = under 50% inhibition at 10 µM
[10] = DRUGMATRIX: Calcium Channel Type L, Phenylalkylamine radioligand binding (ligand: [3H] (-)-Desmethoxyverapamil (D-888)); assay type: cell membranes, Rattus norvegicus, Wistar, Brain, Membrane; conditions: Not Active = under 50% inhibition at 10 µM

Sequence of Mitogen-activated protein kinase 3 (P27361 whole entry): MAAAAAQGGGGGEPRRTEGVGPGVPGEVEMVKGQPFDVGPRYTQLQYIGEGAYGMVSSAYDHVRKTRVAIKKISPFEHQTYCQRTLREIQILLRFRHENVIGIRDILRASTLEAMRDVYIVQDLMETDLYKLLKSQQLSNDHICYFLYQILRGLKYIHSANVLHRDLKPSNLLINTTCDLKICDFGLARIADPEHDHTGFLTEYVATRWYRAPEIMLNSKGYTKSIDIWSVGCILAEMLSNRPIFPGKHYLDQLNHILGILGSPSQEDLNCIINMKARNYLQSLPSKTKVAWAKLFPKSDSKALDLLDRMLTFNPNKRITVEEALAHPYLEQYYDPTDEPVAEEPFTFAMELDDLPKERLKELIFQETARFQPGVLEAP

CC(=O)[C@@]1(O)CC[C@H]2[C@@H]3C[C@H](C)C4=CC(=O)C=C[C@]4(C)[C@@]3(F)[C@@H](O)C[C@@]21C [FLUOROMETHOLONE]
Not Active: IC50 [1] | IC50 [2] | IC50 [3] | IC50 [4] | IC50 [5] | IC50 (Cytochrome P450 3A4) | Ki (Cytochrome P450 3A4) | IC50 [6] | IC50 (Melanocortin receptor 4) | IC50 [7] | Ki [7] | IC50 [8] | Ki [8] | IC50 (Estrogen receptor) | IC50 (Vasopressin V1a receptor) | IC50 [9] | Ki [9] | IC50 [10] | Ki [10]

O=c1[nH]cc(F)c(=O)[nH]1 [FLUOROURACIL]
Not Active: IC50 [1] | IC50 [2] | IC50 [3] | IC50 [4] | IC50 [5] | IC50 (Cytochrome P450 3A4) | Ki (Cytochrome P450 3A4) | IC50 [6] | IC50 (Melanocortin receptor 4) | IC50 [7] | Ki [7] | IC50 [8] | Ki [8] | IC50 (Estrogen receptor) | IC50 (Vasopressin V1a receptor) | IC50 [9] | Ki [9] | IC50 [10] | Ki [10]

Nc1nc2c(ncn2COC(CO)CO)c(=O)[nH]1 [GANCICLOVIR]
Not Active: IC50 [1] | IC50 [2] | IC50 [3] | IC50 [4] | IC50 [5] | IC50 (Cytochrome P450 3A4) | Ki (Cytochrome P450 3A4) | IC50 [6] | IC50 (Melanocortin receptor 4) | IC50 [7] | Ki [7] | IC50 [8] | Ki [8] | IC50 (Estrogen receptor) | IC50 (Vasopressin V1a receptor) | IC50 [9] | Ki [9] | IC50 [10] | Ki [10]

COC1=CC(=O)C[C@@H](C)[C@]12Oc1c(Cl)c(OC)cc(OC)c1C2=O [GRISEOFULVIN]
Not Active: IC50 [1] | IC50 [2] | IC50 [3] | IC50 [4] | IC50 [5] | IC50 (Cytochrome P450 3A4) | Ki (Cytochrome P450 3A4) | IC50 [6] | IC50 (Melanocortin receptor 4) | IC50 [7] | Ki [7] | IC50 [8] | Ki [8] | IC50 (Estrogen receptor) | IC50 (Vasopressin V1a receptor) | IC50 [9] | Ki [9] | IC50 [10] | Ki [10]

NS(=O)(=O)c1cc2c(cc1Cl)NCNS2(=O)=O [HYDROCHLOROTHIAZIDE]
Not Active: IC50 [1] | IC50 [2] | IC50 [3] | IC50 [4] | IC50 [5] | IC50 (Cytochrome P450 3A4) | Ki (Cytochrome P450 3A4) | IC50 [6] | IC50 (Melanocortin receptor 4) | IC50 [7] | Ki [7] | IC50 [8] | Ki [8] | IC50 (Estrogen receptor) | IC50 (Vasopressin V1a receptor) | IC50 [9] | Ki [9] | IC50 [10] | Ki [10]

CN1CCC[C@H]1c1cccnc1 [NICOTINE]
Not Active: IC50 [1] | IC50 [2] | IC50 [3] | IC50 [4] | IC50 [5] | IC50 (Cytochrome P450 3A4) | Ki (Cytochrome P450 3A4) | IC50 [6] | IC50 (Melanocortin receptor 4) | IC50 [7] | Ki [7] | IC50 [8] | Ki [8] | IC50 (Estrogen receptor) | IC50 (Vasopressin V1a receptor) | IC50 [9] | Ki [9] | IC50 [10] | Ki [10]

O=C1CN=C(c2ccccc2)c2cc([N+](=O)[O-])ccc2N1 [NITRAZEPAM]
Not Active: IC50 [1] | IC50 [2] | IC50 [3] | IC50 [4] | IC50 [5] | IC50 (Cytochrome P450 3A4) | Ki (Cytochrome P450 3A4) | IC50 [6] | IC50 (Melanocortin receptor 4) | IC50 [7] | Ki [7] | IC50 [8] | Ki [8] | IC50 (Estrogen receptor) | IC50 (Vasopressin V1a receptor) | IC50 [9] | Ki [9] | IC50 [10] | Ki [10]

CN(C)[C@@H]1C(O)=C(C(N)=O)C(=O)[C@@]2(O)C(O)=C3C(=O)c4c(O)cccc4[C@@](C)(O)[C@H]3[C@H](O)[C@@H]12 [OXYTETRACYCLINE]
Not Active: IC50 [1] | IC50 [2] | IC50 [3] | IC50 [4] | IC50 [5] | IC50 (Cytochrome P450 3A4) | Ki (Cytochrome P450 3A4) | IC50 [6] | IC50 (Melanocortin receptor 4) | IC50 [7] | Ki [7] | IC50 [8] | Ki [8] | IC50 (Estrogen receptor) | IC50 (Vasopressin V1a receptor) | IC50 [9] | Ki [9] | IC50 [10] | Ki [10]
